For 32 compounds, IC50 results are on record in patent US8895733B2 (Novartis AG, priority 2010, dated 2014).

Molecules are shown by their SMILES. Bounds are passed on as bounds.

T1 sequence (Q15858 whole entry): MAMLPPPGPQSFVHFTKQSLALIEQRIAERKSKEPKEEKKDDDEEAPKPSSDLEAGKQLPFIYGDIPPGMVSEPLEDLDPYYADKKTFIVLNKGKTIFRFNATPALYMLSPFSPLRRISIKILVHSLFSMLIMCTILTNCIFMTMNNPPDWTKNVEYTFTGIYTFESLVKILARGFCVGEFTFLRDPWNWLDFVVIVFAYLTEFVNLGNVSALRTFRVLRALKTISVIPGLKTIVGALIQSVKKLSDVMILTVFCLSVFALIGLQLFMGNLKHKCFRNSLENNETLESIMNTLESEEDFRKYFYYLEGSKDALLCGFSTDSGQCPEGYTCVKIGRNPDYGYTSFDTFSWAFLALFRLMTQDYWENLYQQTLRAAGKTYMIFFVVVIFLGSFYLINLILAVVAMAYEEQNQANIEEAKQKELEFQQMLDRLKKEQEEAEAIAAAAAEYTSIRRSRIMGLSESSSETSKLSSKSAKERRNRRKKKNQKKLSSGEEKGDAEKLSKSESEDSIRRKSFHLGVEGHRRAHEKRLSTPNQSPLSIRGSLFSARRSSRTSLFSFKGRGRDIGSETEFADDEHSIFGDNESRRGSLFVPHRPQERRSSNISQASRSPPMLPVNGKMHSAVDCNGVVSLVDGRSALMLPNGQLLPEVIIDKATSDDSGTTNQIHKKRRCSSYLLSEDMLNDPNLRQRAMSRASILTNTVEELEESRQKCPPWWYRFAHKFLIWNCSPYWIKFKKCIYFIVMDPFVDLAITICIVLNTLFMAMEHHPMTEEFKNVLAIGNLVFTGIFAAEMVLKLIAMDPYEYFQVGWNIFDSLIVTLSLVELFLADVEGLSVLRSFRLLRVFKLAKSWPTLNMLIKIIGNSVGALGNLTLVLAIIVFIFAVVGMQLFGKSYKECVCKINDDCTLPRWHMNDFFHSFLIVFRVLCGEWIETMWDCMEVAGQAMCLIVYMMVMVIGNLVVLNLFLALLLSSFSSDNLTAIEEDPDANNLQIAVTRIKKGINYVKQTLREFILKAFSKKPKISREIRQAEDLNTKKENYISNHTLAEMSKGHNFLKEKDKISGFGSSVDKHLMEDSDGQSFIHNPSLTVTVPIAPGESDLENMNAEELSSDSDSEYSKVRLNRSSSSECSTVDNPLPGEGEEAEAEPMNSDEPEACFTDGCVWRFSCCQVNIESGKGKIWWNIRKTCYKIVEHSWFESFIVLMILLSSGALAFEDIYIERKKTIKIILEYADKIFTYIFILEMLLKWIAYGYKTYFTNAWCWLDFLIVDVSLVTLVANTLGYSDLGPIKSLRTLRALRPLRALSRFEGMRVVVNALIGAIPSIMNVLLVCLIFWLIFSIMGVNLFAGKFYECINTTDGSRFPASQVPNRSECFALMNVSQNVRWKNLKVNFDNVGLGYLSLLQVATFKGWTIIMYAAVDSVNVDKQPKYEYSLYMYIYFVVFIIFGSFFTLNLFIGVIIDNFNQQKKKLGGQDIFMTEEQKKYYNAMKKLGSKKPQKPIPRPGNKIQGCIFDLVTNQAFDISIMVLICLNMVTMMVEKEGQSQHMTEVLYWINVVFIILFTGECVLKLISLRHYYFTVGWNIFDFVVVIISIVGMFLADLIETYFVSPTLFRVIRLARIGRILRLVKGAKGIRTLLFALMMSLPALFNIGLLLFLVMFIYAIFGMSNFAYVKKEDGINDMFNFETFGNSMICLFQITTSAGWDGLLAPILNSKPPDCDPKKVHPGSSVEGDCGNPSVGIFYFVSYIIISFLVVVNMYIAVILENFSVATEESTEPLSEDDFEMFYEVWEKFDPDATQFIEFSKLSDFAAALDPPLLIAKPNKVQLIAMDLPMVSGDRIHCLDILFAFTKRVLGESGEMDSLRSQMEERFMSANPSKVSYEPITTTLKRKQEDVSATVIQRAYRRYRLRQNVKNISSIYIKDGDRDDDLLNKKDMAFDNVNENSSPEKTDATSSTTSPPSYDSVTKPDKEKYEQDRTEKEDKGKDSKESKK

This assay has as its target T1, Nav 1.7 (Homo sapiens, UniProt Q15858).
T1 construct: expressed in transfected cells
Briefly: Whole-cell voltage clamp electrophysiology, automated patch clamp (marker c in Table of Examples). In kind it is cell-based. To be noted: marker c: Automated patch clamp data; read-out: Nav 1.7 activity. In a few lines: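 Human NaV1.7 currents were recorded by whole-cell automated patch clamp, on IonWorks Quattro or another automated platform, typically in perforated-patch configuration. The stimulus protocol was designed to probe block mainly of the inactivated state, with a typical sweep stepping from about −65 mV holding to −10 mV, then −100 mV.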
With `CN(c1ccccc1)c1nc(N)nc(-c2noc(-c3cccc(OCC(F)(F)F)n3)n2)n1` [Example 155, 2-N-methyl-2-N-phenyl-6-{5-[6-(2,2,2-trifluoroethoxy)pyridin-2-yl]-1,2,4-oxadiazol-3-yl}-1,3,5-triazine-2,4-diamine], the IC50 was 4.57 µM.

Consider `COCCNc1nc(Nc2ccccc2)nc(-c2noc(-c3ccc(OCC(F)(F)F)nc3)n2)n1` [Example 157, 2-N-(2-methoxyethyl)-4-N-phenyl-6-{5-[6-(2,2,2-trifluoroethoxy)pyridin-3-yl]-1,2,4-oxadiazol-3-yl}-1,3,5-triazine-2,4-diamine], for which the IC50 was found to be 0.477 µM. Consider `CN(c1ccccc1)c1nc(N)nc(-c2noc(-c3ccc(F)nc3)n2)n1` [Example 158, 6-[5-(6-fluoropyridin-3-yl)-1,2,4-oxadiazol-3-yl]-2-N-methyl-2-N-phenyl-1,3,5-triazine-2,4-diamine], for which the IC50 amounted to 3.31 µM.

Take `CN(c1ccccc1)c1nc(N)nc(-c2noc(C3CCN(C(=O)C(F)(F)F)CC3)n2)n1` [Example 159, 1-[4-(3-{4-Amino-6-[methyl(phenyl)amino]-1,3,5-triazin-2-yl}-1,2,4-oxadiazol-5-yl)piperidin-1-yl]-2,2,2-trifluoroethan-1-one]: the IC50 was 8.67 µM. In the case of `CN(c1ccccc1)c1nc(N)nc(-c2noc(C3CCN(S(C)(=O)=O)CC3)n2)n1` [Example 160, 6-[5-(1-methanesulfonylpiperidin-4-yl)-1,2,4-oxadiazol-3-yl]-2-N-methyl-2-N-phenyl-1,3,5-triazine-2,4-diamine] it was 2.73 µM; in that of `CC(C)C(=O)N1CCC(c2nc(-c3nc(N)nc(N(C)c4ccccc4)n3)no2)CC1` [Example 161, 1-[4-(3-{4-Amino-6-[methyl(phenyl)amino]-1,3,5-triazin-2-yl}-1,2,4-oxadiazol-5-yl)piperidin-1-yl]-2-methylpropan-1-one], 8.5 µM. In the case of `CC(=O)N1CCC(c2nc(-c3nc(N)nc(N(C)c4ccccc4)n3)no2)CC1` [Example 162, 1-[4-(3-{4-amino-6-[methyl(phenyl)amino]-1,3,5-triazin-2-yl}-1,2,4-oxadiazol-5-yl)piperidin-1-yl]ethan-1-one] it was 8.98 µM. For the compound `CN(c1ccccc1)c1nc(N)nc(-c2noc(C3CCN(CCC(F)(F)F)CC3)n2)n1` [Example 163, 2-N-methyl-2-N-phenyl-6-{5-[1-(3,3,3-trifluoropropyl)piperidin-4-yl]-1,2,4-oxadiazol-3-yl}-1,3,5-triazine-2,4-diamine], the IC50 was 0.559 µM.

For the compound `CN(c1ccccc1)c1nc(N)nc(-c2noc(C3CCN(C(=O)CC(F)(F)F)CC3)n2)n1` [Example 164, 1-[4-(3-{4-amino-6-[methyl(phenyl)amino]-1,3,5-triazin-2-yl}-1,2,4-oxadiazol-5-yl)piperidin-1-yl]-3,3,3-trifluoropropan-1-one], the IC50 stood at 9.04 µM. Turning to `COCC1CCN(c2nc(-c3nc(N)nc(N(C)c4ccccc4)n3)no2)CC1` [Example 165, 6-{5-[4-(methoxymethyl)piperidin-1-yl]-1,2,4-oxadiazol-3-yl}-2-N-methyl-2-N-phenyl-1,3,5-triazine-2,4-diamine], the IC50 came to 7.69 µM. With `CN(c1ccccc1)c1nc(N)nc(-c2noc(N3CCC(COc4ccccc4)CC3)n2)n1` [Example 166, 2-N-methyl-6-{5-[4-(phenoxymethyl)piperidin-1-yl]-1,2,4-oxadiazol-3-yl}-2-N-phenyl-1,3,5-triazine-2,4-diamine], the IC50 is 0.06 µM. Consider `CCCS(=O)(=O)N1CCC(c2nc(-c3nc(N)nc(N(C)c4ccccc4)n3)no2)CC1` [Example 168, 2-N-methyl-2-N-phenyl-6-{5-[1 - (propane-1-sulfonyl)piperidin-4-yl]-1,2,4-oxadiazol-3-yl}-1,3,5-triazine-2,4-diamine], for which the IC50 was found to be 1.47 µM.

On to `CN(c1ccccc1)c1nc(N)nc(-c2noc(C3CCN(S(=O)(=O)CC(F)(F)F)CC3)n2)n1` [Example 169, 2-N-methyl-2-N-phenyl-6-(5-{1-[(2,2,2-trifluoroethane)sulfonyl]piperidin-4-yl}-1,2,4-oxadiazol-3-yl)-1,3,5-triazine-2,4-diamine], for which the IC50 was determined as 1.03 µM. Regarding `CCS(=O)(=O)N1CCC(c2nc(-c3nc(N)nc(N(C)c4ccccc4)n3)no2)CC1` [Example 170, 6-{5-[1-(ethanesulfonyl)piperidin-4-yl]-1,2,4-oxadiazol-3-yl}-2-N-methyl-2-N-phenyl-1,3,5-triazine-2,4-diamine], the IC50 amounted to 1.88 µM. Consider `CC(C)S(=O)(=O)N1CCC(c2nc(-c3nc(N)nc(N(C)c4ccccc4)n3)no2)CC1` [Example 171, 2-N-methyl-2-N-phenyl-6-{5-[1-(propane-2-sulfonyl)piperidin-4-yl]-1,2,4-oxadiazol-3-yl}-1,3,5-triazine-2,4-diamine], for which the IC50 was determined as 0.254 µM. `CN(c1ccccc1)c1nc(N)nc(-c2noc(C3CCN(S(=O)(=O)c4ccccc4)CC3)n2)n1` [Example 172, 6-{5-[1-(benzenesulfonyl)piperidin-4-yl]-1,2,4-oxadiazol-3-yl}-2-N-methyl-2-N-phenyl-1,3,5-triazine-2,4-diamine]: the IC50 turned out to be 1.08 µM. On to `CN(c1ccccc1)c1nc(N)nc(-c2noc(C3CCN(Cc4ccccc4)CC3)n2)n1` [Example 173, 6-[5-(1-Benzylpiperidin-4-yl)-1,2,4-oxadiazol-3-yl]-2-N-methyl-2-N-phenyl-1,3,5-triazine-2,4-diamine], for which the IC50 worked out at 1 µM. For the compound `Nc1nc(Nc2ccccc2)nc(-c2noc(N3CCC(COCC(F)(F)F)CC3)n2)n1` [Example 174, 2-N-Phenyl-6-(5-{4-[(2,2,2-trifluoroethoxy)methyl]piperidin-1-yl}-1,2,4-oxadiazol-3-yl)-1,3,5-triazine-2,4-diamine], the IC50 was found to be 0.34 µM.

`CN(c1ccccc1)c1nc(N)nc(-c2noc(N3CCC(CSCC(F)(F)F)CC3)n2)n1` [Example 175, 2-N-methyl-2-N-phenyl-6-[5-(4-{[(2,2,2-trifluoroethyl)sulfanyl]methyl}piperidin-1-yl)-1,2,4-oxadiazol-3-yl]-1,3,5-triazine-2,4-diamine]: the IC50 was 0.02 µM.

For `CN(c1ccccc1)c1nc(N)nc(-c2noc(N3CCC(CSc4ccccc4)CC3)n2)n1` [Example 176, 2-N-methyl-2-N-phenyl-6-(5-{4-[(phenylsulfanyl)methyl]piperidin-1-yl}-1,2,4-oxadiazol-3-yl)-1,3,5-triazine-2,4-diamine], the IC50 was found to be 0.223 µM. Regarding `CC(C)SCC1CCN(c2nc(-c3nc(N)nc(N(C)c4ccccc4)n3)no2)CC1` [Example 177, 2-N-methyl-2-N-phenyl-6-(5-{4-[(propan-2-ylsulfanyl)methyl]piperidin-1-yl}-1,2,4-oxadiazol-3-yl)-1,3,5-triazine-2,4-diamine], the IC50 was 0.306 µM. Regarding `CN(c1ccccc1)c1nc(N)nc(-c2noc(N3CCC(CS(=O)(=O)CC(F)(F)F)CC3)n2)n1` [Example 178, 2-N-Methyl-2-N-phenyl-6-[5-(4-{[(2,2,2-trifluoroethane)sulfonyl]methyl}piperidin-1-yl)-1,2,4-oxadiazol-3-yl]-1,3,5-triazine-2,4-diamine], the IC50 came to 2.65 µM. The same measure for `CN(c1ccccc1)c1nc(N)nc(-c2noc(N3CCC(CS(=O)(=O)c4ccccc4)CC3)n2)n1` [Example 179, 6-(5-{4-[(benzenesulfonyl)methyl]piperidin-1-yl}-1,2,4-oxadiazol-3-yl)-2-N-methyl-2-N-phenyl-1,3,5-triazine-2,4-diamine]: 0.81 µM. In the case of `CC(C)[S+]([O-])CC1CCN(c2nc(-c3nc(N)nc(N(C)c4ccccc4)n3)no2)CC1` (centres unmarked) [Example 180, 2-N-methyl-2-N-phenyl-6-(5-{4-[(propane-2-sulfinyl)methyl]piperidin-1-yl}-1,2,4-oxadiazol-3-yl)-1,3,5-triazine-2,4-diamine], the IC50 is greater than 7.71 µM.

As for `CC(C)S(=O)(=O)CC1CCN(c2nc(-c3nc(N)nc(N(C)c4ccccc4)n3)no2)CC1` [Example 181, 2-N-methyl-2-N-phenyl-6-(5-{4-[(propane-2-sulfonyl)methyl]piperidin-1-yl}-1,2,4-oxadiazol-3-yl)-1,3,5-triazine-2,4-diamine], the IC50 stood at 9.08 µM. As for `COC(=O)c1cccc(Nc2nc(N)nc(-c3noc(-c4ccc(OCC(F)(F)F)nc4)n3)n2)c1` [Example 182, methyl 3-[(4-amino-6-{5-[6-(2,2,2-trifluoroethoxy)pyridin-3-yl]-1,2,4-oxadiazol-3-yl}-1,3,5-triazin-2-yl)amino]benzoate], the IC50 stood at 8.69 µM. `CCOc1ccccc1-c1nc(-c2nc(N)nc(N(C)c3cccc(C)c3)n2)no1` [Example 183, 6-[5-(2-ethoxyphenyl)-1,2,4-oxadiazol-3-yl]-2-N-methyl-2-N-(3-methylphenyl)-1,3,5-triazine-2,4-diamine]: the IC50 was 0.067 µM. Turning to `COc1ccc(-c2nc(-c3nc(N)nc(N(C)c4cccc(C)c4)n3)no2)cc1` [Example 184, 6-[5-(4-methoxyphenyl)-1,2,4-oxadiazol-3-yl]-2-N-methyl-2-N-(3-methylphenyl)-1,3,5-triazine-2,4-diamine], the IC50 stood at 0.062 µM.

Consider `COc1cccc(F)c1-c1nc(-c2nc(N)nc(N(C)c3cccc(C)c3)n2)no1` [Example 185, 6-[5-(2-fluoro-6-methoxyphenyl)-1,2,4-oxadiazol-3-yl]-2-N-methyl-2-N-(3-methylphenyl)-1,3,5-triazine-2,4-diamine], for which the IC50 amounted to 0.144 µM.

For `COc1ccc(F)cc1-c1nc(-c2nc(N)nc(N(C)c3cccc(C)c3)n2)no1` [Example 186], the IC50 was found to be 0.087 µM. In the case of `COc1cc(F)ccc1-c1nc(-c2nc(N)nc(N(C)c3cccc(C)c3)n2)no1` [Example 187, 6-[5-(4-fluoro-2-methoxyphenyl)-1,2,4-oxadiazol-3-yl]-2-N-methyl-2-N-(3-methylphenyl)-1,3,5-triazine-2,4-diamine], the IC50 stood at 0.458 µM.

In the case of `COc1ccc(-c2nc(-c3nc(N)nc(N(C)c4cccc(C)c4)n3)no2)c(OC)c1` [Example 188, 6-[5-(2,4-dimethoxyphenyl)-1,2,4-oxadiazol-3-yl]-2-N-methyl-2-N-(3-methylphenyl)-1,3,5-triazine-2,4-diamine], the IC50 came to 7.63 µM.
